Results as given in patent publication US10913744B2, “LRRK2 inhibitors and methods of making and using the same” (Dana-Farber Cancer Institute, Inc., priority 2015, dated 2021).
Like-named read-outs stand apart in the source and are kept apart here.

Experiments:
MAP4K5 = MAP4K5 (Homo sapiens (Human), UniProt Q9Y4K4); assay: Dundee profiling
CDK3 = CDK3 (Homo sapiens (Human), UniProt Q00526); assay: KinomeScan; format: binding; settings: 1 uM
LRRK2[G2019S] = LRRK2[G2019S] (Homo sapiens (Human), UniProt Q5S007, G2019S); assay: LRRK2 enzyme kinase assay, G2019S; format: biochemical; settings: Table 1; ATP at Km 112 μm
PKMYT1 = PKMYT1 (Homo sapiens (Human), UniProt Q99640); assay: KinomeScan; format: binding; settings: 1 uM
PLK2 = PLK2 (Homo sapiens (Human), UniProt Q9NYY3); assay: KinomeScan; format: binding; settings: 1 uM
PAK4 = PAK4 (Homo sapiens (Human), UniProt O96013); assay: Dundee profiling
Sequence of PAK4 (O96013 whole entry, species assumed): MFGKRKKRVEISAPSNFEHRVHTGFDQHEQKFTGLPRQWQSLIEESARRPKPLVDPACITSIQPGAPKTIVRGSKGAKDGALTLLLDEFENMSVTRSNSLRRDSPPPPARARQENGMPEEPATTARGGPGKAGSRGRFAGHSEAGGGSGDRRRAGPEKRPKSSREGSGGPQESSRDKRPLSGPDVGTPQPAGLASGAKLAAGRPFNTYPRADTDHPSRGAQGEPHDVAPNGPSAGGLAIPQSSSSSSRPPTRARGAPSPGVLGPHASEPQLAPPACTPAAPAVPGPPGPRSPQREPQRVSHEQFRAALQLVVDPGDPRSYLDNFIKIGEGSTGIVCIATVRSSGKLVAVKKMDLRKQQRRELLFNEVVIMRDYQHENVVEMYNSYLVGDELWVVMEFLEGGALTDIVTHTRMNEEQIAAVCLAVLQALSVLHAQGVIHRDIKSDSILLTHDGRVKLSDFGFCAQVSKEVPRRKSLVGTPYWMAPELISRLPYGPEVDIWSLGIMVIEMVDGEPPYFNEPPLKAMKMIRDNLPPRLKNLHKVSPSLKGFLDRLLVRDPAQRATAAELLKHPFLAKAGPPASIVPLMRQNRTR

SIK3 = SIK3 (Homo sapiens (Human), UniProt Q9Y2K2); assay: Dundee profiling
TAK1 = TAK1 (Homo sapiens (Human), UniProt O43318); assay: Dundee profiling
AMPK (hum) = assay: Dundee profiling
SYK = SYK (Homo sapiens (Human), UniProt P43405); assay: Dundee profiling
IGF-1R = IGF-1R (Homo sapiens (Human), UniProt P08069); assay: Dundee profiling
[1] = molecular target: GST-LRRK2(1,326-2,517) wild-type (Homo sapiens (Human), UniProt Q5S007); assay: Nictide peptide kinase assay, 100 μM ATP; format: biochemical; settings: 20 μM Nictide
Description: (§1) Assay procedures are further discussed in Section 4 herein.
(§2) Samples were washed extensively and the incorporation of [γ-32P]ATP into Nictide was quantified by Cerenkov counting. IC50 values were calculated with GraphPad Prism using non-linear regression analysis.

[2] = molecular target: GST-LRRK2[G2019S](1,326-2,527) (Homo sapiens (Human), UniProt Q5S007, G2019S); assay: Nictide peptide kinase assay, 100 μM ATP; format: biochemical; settings: 20 μM Nictide
Description: as §1, §2

[3] = molecular target: GST-LRRK2[A2016T](1326-2517) (Homo sapiens (Human), UniProt Q5S007, A2016T); assay: Nictide peptide kinase assay, 100 μM ATP; format: biochemical; settings: 20 μM Nictide
Description: as §1, §2

[4] = molecular target: GST-LRRK2[G2019S + A2016T](1,326-2,517) (Homo sapiens (Human), UniProt Q5S007, A2016T/G2019S); assay: Nictide peptide kinase assay, 100 μM ATP; format: biochemical; settings: 20 μM Nictide
Description: as §1, §2

PIM3 = PIM3 (Homo sapiens (Human), UniProt Q86V86); assay: Dundee profiling
EGFR (T790M) = EGFR (T790M) (Homo sapiens (Human), UniProt P00533, T790M); assay: KinomeScan; format: binding; settings: 1 uM
TTBK1 = TTBK1 (Homo sapiens (Human), UniProt Q5TCY1); assay: Dundee profiling
Sequence of TTBK1 (Q5TCY1 whole entry, species assumed): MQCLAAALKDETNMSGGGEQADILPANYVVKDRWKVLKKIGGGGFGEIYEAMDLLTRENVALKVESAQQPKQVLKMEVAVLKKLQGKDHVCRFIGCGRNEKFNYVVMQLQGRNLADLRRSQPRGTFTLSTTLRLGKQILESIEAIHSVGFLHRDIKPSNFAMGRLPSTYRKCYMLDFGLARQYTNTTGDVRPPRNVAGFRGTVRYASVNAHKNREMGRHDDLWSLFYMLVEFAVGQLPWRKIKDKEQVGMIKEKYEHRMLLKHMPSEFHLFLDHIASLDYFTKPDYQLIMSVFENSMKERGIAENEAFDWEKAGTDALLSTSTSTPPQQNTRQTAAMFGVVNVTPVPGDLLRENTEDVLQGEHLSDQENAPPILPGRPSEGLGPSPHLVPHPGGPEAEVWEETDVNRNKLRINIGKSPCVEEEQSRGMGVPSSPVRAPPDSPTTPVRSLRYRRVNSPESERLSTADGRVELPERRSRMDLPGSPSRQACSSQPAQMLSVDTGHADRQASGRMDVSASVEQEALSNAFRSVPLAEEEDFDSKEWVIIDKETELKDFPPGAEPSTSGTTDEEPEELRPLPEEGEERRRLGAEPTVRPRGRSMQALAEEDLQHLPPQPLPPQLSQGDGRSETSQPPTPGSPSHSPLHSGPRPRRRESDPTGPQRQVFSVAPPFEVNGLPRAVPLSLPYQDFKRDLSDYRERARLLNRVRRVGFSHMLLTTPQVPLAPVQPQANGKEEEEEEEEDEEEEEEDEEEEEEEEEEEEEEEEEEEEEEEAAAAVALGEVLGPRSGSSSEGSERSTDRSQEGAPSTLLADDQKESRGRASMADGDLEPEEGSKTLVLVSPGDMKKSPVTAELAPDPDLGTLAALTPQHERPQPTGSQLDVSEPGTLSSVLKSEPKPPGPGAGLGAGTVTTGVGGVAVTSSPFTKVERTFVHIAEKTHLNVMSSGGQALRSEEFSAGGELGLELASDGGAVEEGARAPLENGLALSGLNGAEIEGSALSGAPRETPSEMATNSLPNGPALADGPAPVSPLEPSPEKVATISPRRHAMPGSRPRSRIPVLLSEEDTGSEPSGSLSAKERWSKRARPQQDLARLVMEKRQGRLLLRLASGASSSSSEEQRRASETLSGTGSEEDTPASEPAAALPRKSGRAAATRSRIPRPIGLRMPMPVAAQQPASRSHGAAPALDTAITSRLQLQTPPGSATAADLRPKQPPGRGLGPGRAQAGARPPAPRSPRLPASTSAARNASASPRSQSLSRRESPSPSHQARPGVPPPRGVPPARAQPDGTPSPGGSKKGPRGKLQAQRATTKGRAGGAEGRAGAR

S6K1 = S6K1 (Homo sapiens (Human), UniProt P23443); assay: Dundee profiling
ARK5 = ARK5 (Homo sapiens (Human), UniProt O60285); assay: KinomeScan; format: binding; settings: 1 uM
CSK = CSK (Homo sapiens (Human), UniProt P41240); assay: Dundee profiling
Sequence of CSK (P41240 whole entry, looked up, species assumed): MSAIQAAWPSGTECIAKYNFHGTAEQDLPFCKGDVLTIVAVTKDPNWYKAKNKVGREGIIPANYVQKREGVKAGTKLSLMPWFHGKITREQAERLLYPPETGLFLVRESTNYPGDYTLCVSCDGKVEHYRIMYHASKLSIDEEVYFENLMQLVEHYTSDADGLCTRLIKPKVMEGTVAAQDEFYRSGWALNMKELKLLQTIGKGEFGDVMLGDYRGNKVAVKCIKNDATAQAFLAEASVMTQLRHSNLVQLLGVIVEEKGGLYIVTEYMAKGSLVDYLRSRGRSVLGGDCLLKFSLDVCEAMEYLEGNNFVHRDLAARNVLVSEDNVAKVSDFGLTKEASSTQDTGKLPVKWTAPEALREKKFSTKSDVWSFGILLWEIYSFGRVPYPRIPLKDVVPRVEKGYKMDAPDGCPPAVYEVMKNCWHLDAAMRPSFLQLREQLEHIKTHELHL

CHK2 = CHK2 (Homo sapiens (Human), UniProt O96017); assay: Dundee profiling
Sequence of CHK2 (O96017 whole entry, species assumed): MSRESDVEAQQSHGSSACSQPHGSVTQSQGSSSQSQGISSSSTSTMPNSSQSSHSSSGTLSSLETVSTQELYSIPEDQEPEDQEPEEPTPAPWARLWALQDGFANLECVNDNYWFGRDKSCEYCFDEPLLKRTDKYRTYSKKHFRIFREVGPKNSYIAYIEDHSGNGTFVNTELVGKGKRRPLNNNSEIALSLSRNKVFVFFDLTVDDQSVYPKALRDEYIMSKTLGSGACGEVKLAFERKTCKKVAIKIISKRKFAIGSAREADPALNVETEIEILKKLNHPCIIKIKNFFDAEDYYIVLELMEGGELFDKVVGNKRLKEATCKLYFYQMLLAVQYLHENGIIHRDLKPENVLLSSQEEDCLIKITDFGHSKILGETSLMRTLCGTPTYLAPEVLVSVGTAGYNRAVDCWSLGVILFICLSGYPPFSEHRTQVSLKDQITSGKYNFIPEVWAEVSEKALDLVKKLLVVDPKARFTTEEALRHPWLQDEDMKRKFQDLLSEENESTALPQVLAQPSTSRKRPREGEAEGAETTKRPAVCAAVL

EGFR (L858R, T790M) = EGFR (L858R, T790M) (Homo sapiens (Human), UniProt P00533, L858R/T790M); assay: KinomeScan; format: binding; settings: 1 uM
RIPK2 = RIPK2 (Homo sapiens (Human), UniProt O43353); assay: Dundee profiling
EGFR (L858R) = EGFR (L858R) (Homo sapiens (Human), UniProt P00533, L858R); assay: KinomeScan; format: binding; settings: 1 uM
p38d MAPK = p38d MAPK (Homo sapiens (Human), UniProt O15264); assay: Dundee profiling
MLK1 = MLK1 (Homo sapiens (Human), UniProt P80192); assay: Dundee profiling
Sequence of MLK1 (P80192 whole entry, looked up, species assumed): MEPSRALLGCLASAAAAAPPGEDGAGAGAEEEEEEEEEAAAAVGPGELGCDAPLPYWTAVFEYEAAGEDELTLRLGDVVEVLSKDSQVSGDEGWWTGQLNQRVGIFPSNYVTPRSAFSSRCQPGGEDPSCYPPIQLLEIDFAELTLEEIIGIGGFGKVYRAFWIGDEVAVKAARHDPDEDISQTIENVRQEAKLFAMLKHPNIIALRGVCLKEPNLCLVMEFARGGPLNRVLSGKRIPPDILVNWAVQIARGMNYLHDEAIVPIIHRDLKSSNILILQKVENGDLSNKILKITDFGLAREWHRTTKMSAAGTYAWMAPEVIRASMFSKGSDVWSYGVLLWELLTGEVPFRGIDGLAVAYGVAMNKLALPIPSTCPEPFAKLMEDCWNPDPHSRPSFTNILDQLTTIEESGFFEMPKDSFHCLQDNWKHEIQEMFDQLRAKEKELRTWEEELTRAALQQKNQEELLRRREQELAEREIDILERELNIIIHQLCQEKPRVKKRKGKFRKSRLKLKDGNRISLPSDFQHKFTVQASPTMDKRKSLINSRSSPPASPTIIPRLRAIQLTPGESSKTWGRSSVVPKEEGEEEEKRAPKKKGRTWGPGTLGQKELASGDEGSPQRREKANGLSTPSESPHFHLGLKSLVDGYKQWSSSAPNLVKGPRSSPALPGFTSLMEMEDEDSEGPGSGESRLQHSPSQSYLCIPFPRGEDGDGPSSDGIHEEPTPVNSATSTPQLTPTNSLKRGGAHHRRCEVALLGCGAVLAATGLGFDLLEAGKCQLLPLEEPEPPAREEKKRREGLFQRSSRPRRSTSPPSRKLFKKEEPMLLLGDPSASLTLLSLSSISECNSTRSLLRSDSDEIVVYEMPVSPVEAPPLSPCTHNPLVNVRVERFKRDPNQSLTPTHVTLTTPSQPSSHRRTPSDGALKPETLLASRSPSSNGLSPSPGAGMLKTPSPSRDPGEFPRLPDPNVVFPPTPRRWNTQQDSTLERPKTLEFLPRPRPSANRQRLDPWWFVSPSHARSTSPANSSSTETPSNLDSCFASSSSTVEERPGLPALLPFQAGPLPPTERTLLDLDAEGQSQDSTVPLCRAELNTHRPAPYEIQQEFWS

PKCz = PKCz (Homo sapiens (Human), UniProt Q05513); assay: Dundee profiling
MST4 = MST4 (Homo sapiens (Human), UniProt Q9P289); assay: Dundee profiling
CHK1 = CHK1 (Homo sapiens (Human), UniProt O14757); assay: Dundee profiling
Sequence of CHK1 (O14757 whole entry, species assumed): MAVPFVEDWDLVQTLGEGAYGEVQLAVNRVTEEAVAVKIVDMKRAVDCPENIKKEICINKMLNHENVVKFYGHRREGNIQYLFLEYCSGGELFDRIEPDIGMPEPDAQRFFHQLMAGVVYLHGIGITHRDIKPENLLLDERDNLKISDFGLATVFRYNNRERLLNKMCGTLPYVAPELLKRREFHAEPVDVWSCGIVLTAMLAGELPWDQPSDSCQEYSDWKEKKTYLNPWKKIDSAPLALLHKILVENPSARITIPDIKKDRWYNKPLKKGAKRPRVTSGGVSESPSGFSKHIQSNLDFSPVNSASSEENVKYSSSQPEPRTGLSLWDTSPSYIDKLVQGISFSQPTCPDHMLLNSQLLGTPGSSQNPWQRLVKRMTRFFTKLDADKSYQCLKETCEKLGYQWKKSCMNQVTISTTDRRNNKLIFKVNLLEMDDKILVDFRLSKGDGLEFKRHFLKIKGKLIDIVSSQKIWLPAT

PRK2 = PRK2 (Homo sapiens (Human), UniProt Q16513); assay: Dundee profiling
EPHB2 = EPHB2 (Homo sapiens (Human), UniProt P29323); assay: Dundee profiling
[5] = read-out: percent remaining enzymatic activity, I1, 1 μM
[6] = read-out: percent remaining enzymatic activity, I10
[7] = read-out: percent remaining enzymatic activity

With CNc1nc(Nc2ccc(C(=O)N3CCOCC3)cc2OC)nc2[nH]cc(Cl)c12 [Compound 18, (4-((5-chloro-4-(methylamino)-7H-pyrrolo[2,3-d]pyrimidin-2-yl)amino)-3-methoxyphenyl)(morpholino)methanone] the remaining activity at 1 µM (MAP4K5; [5]) was 110%, the remaining activity at 1 µM (MAP4K5; [6]) was 92% and the KinomeScan value (CDK3) was 96. For the same molecule, the IC50 (LRRK2[G2019S]) was 2.2 nM, the KinomeScan value (PKMYT1) was 100 and the KinomeScan value (PLK2) was 100. For the same molecule, the remaining activity at 1 µM (PAK4; [5]) was 102%, the remaining activity at 1 µM (PAK4; [6]) was 92% and the “percent remaining enzymatic activity” value (SIK3; I10) was 96%. The remaining activity at 1 µM (SIK3; [7]) was 107%, the remaining activity at 1 µM (TAK1; [5]) was 96% and the remaining activity at 1 µM (TAK1; [6]) was 42%. The “percent remaining enzymatic activity” value (AMPK (hum); I1, 1 μM) was 104%, the “percent remaining enzymatic activity” value (AMPK (hum); I10) was 92% and the “percent remaining enzymatic activity” value (SYK; I10) was 81%. It also gave a remaining activity at 1 µM (SYK; [7]) of 91%, a remaining activity at 1 µM (IGF-1R; [5]) of 13% and a remaining activity at 1 µM (IGF-1R; [6]) of 9%. For the same molecule, the IC50 [1] was 6.6 nM, the IC50 [2] was 2.2 nM and the IC50 [3] was 47.7 nM. For the same molecule, the IC50 [4] was 19.8 nM, the remaining activity at 1 µM (PIM3; [5]) was 96% and the remaining activity at 1 µM (PIM3; [6]) was 75%. For the same molecule, the KinomeScan value (EGFR (T790M)) was 97, the remaining activity at 1 µM (TTBK1; [5]) was 103% and the remaining activity at 1 µM (TTBK1; [6]) was 98%. For the same molecule, the remaining activity at 1 µM (S6K1; [5]) was 106%, the remaining activity at 1 µM (S6K1; [6]) was 102% and the KinomeScan value (ARK5) was 89. For the same molecule, the “percent remaining enzymatic activity” value (CSK; I10) was 92%, the remaining activity at 1 µM (CSK; [7]) was 89% and the IC50 (CHK2) was 27.6 nM. For the same molecule, the inhibition at 1 µM (CHK2; read-out: inhibition of kinase activity of the DMSO control) was > 90%, the remaining activity at 1 µM (CHK2; [5]) was 5% and the remaining activity at 1 µM (CHK2; [6]) was 1%. It also gave a KinomeScan value (EGFR (L858R, T790M)) of 100, a remaining activity at 1 µM (RIPK2; [5]) of 102% and a remaining activity at 1 µM (RIPK2; [6]) of 83%. For the same molecule, the KinomeScan value (EGFR (L858R)) was 83, the remaining activity at 1 µM (p38d MAPK; [5]) was 107% and the remaining activity at 1 µM (p38d MAPK; [6]) was 102%. It also gave a remaining activity at 1 µM (MLK1; [5]) of 81%, a remaining activity at 1 µM (MLK1; [6]) of 38% and a remaining activity at 1 µM (PKCz; [5]) of 76%. The remaining activity at 1 µM (PKCz; [6]) was 94%, the remaining activity at 1 µM (MST4; [5]) was 103% and the remaining activity at 1 µM (MST4; [6]) was 97%. For the same molecule, the “percent remaining enzymatic activity” value (CHK1; I10) was 93%, the remaining activity at 1 µM (CHK1; [7]) was 110% and the remaining activity at 1 µM (PRK2; [5]) was 103%. For the same molecule, the remaining activity at 1 µM (PRK2; [6]) was 93%, the “percent remaining enzymatic activity” value (EPHB2; I10) was 58% and the remaining activity at 1 µM (EPHB2; [7]) was 60%.
